From PMC5118871 (Molecular microbiology, 2016)

How the values were obtained:
[1] = molecular target: T1, LmOpuCA tandem CBS domains (residues 247–371) (Listeria monocytogenes, UniProt Q9KHT9); test: X-ray crystal structure, […] Å, crystal soaked with c-di-AMP; type: binding; conditions: one c-di-AMP per dimer, at the dimer interface; pH 9.0
T1 sequence (Q9KHT9 247-371): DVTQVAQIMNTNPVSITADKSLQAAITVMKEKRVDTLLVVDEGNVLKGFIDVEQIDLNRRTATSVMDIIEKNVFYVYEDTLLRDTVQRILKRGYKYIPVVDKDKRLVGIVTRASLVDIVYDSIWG

crystal structure = molecular target: the molecule itself; test: crystal structure

Nc1ncnc2c1ncn2[C@@H]1O[C@@H]2COP(=O)(O)O[C@H]3[C@@H](O)[C@H](n4cnc5c(N)ncnc54)O[C@@H]3COP(=O)(O)O[C@H]2[C@H]1O [c-di-AMP]
X-ray crystal structure, 2.9 Å, crystal soaked with c-di-AMP [1]: We observed clear electron density for one c-di-AMP molecule bound to the OpuCA dimer

B1: L. monocytogenes OpuCA (LmOpuCA) tandem CBS domains (residues 247–371) (domain or fragment, UniProt Q9KHT9 247-371, looked up)
chain: DVTQVAQIMNTNPVSITADKSLQAAITVMKEKRVDTLLVVDEGNVLKGFIDVEQIDLNRRTATSVMDIIEKNVFYVYEDTLLRDTVQRILKRGYKYIPVVDKDKRLVGIVTRASLVDIVYDSIWG
stoichiometry N (crystal structure): 2
